US20130296393A1, “METHOD FOR CONTROLLING CLUBROOT” (ISHIHARA SANGYO KAISHA, LTD., priority 2011, published 2013)

What was measured:
Format in all cases: in vivo
Plasmodiophora brassicae [1] = experiment: Cabbage clubroot control test, pot test, cyazofamid vs chlorothalonil (Example 3 / Comparative Example 3); parameters: key to Disease control value: control value = (1 − treated/control severity) × 100; key to Disease severity: severity = Σ(plants × index 0-4)/(plants × 4) × 100; details: for Disease control value / Disease severity: 57 days after settled planting
Description: (§1) Disease severity={Σ(number of each index of diseased plants×disease index)/(number of plants surveyed×4)}×100
(§2) Disease control value={1−(treatment disease severity/control disease severity)}×100
(§3) 0: No adhesion of clubroot, 1: clubroot adhesion to lateral root, 2: clubroot adhesion to the entire lateral root or clubroot adhesion to a part of tap root, 3: adhesion of large clubroot to tap root, and 4: clubroot adhesion to the entire tap root.
A spore suspension of Plasmodiophora brassicae (fungus density: 1×10^5 fungi/g dry soil) was inoculated into a sterilization soil adjusted to pH of 6.0 with Sandoseto and after introducing the resulting test soil into a 1/5000 a pot, a cabbage (variety: Okina) seedling grown in a cell seedling tray (128 cells/seedling box) was settled-planted by establishing five plantings for each test section having a size of 0.02 m^2 for one plant. Immediately, 4 days, 7 days and 14 days after settled planting, the chemical solution for spraying prepared by the same method as in Example 1(1) was drenched into the soil in a ratio of 250 ml/plant. Fifty-seven days after the settled planting, the number of each index of clubroot adhesion to the root was investigated. For comparison, the same test was carried out on a control section where a soil drench treatment with the chemical solution for spraying was not applied.
A chemical solution for spraying in a concentration of 800 ppm was prepared by diluting 40% chlorothalonil (Daconil 1000 [trade name], manufactured by SDS K.K.) with water.
The test was carried out by the same procedure as in Example 3 except that the chemical solution (cyazofamid) for spraying was replaced by the chemical solution (chlorothalonil) for spraying prepared in Comparative Example 3(1).
(§4) The disease severity and disease control value of Example 3 and Comparative Example 3 were determined by the same methods as in Example 1 and Comparative Example 1. In addition, the weight of cabbage in the aerial part was measured. Furthermore, the test result was shown by the average value of five plantings.

Plasmodiophora brassicae [2] = experiment: Cabbage clubroot control test, pot test (Example 1 / Comparative Example 1); details: 0.3% dust formulation 30 kg/10 a soil incorporation just before settled planting
Method: A chemical solution for spraying at 50 ppm was prepared by diluting 9.4% w/w cyazofamid (Ranman [trade name] flowable, manufactured by Ishihara Sangyo Kaisha Ltd.) with water.
A spore suspension of Plasmodiophora brassicae (fungus density: 1×10^5 fungi/g dry soil) was inoculated into a sterilization soil adjusted to pH of 6.2 with Sandoseto and after introducing the resulting test soil into a 1/5000 a pot, a cabbage (variety: Okina) seedling grown in a cell seedling tray (128 cells/seedling box) was settled-planted by establishing five plantings for each test section having a size of 0.02 m^2 per one plant. Just after the settled planting, 3 days, 7 days, 10 days and 14 days after the settled planting, the chemical solution for spraying prepared in (1) was applied by soil drench at a ratio of 250 ml/plant. Sixty days after the settled planting, the number of each index of clubroot adhesion to the root was investigated. For comparison, the same test was carried out on a control section where a soil drench treatment with the chemical solution for spraying was not applied.
(§5) The test was carried out by the same method as in Example 1(2) except that in place of the soil drench treatment with the chemical solution for spraying, 30 kg/10 a of 0.3% flusulfamide (dust formulation of Nebijin [trade name], manufactured by Mitsui Chemicals Agro, Inc.) was applied to the test soil just before settled planting and incorporated into the soil by means of a small mixer (interfusion depth: 15 cm).
In Example 1 and Comparative Example 1, the adhesion of clubroot was investigated by pulling out the root of cabbage. The adhesion of clubroot was investigated by calculating the disease severity using the following formula. In addition, the weight of cabbage in the aerial part was measured. Furthermore, the test result was shown by the average value of five plantings.
as §1, §2, §3

Plasmodiophora brassicae [3] = experiment: Influence of rainfall on clubroot control effect in cabbage (Example 4 / Comparative Example 4); details: pot; for Weight in the aerial part / Disease control value / Disease severity: 0.3% dust formulation 30 kg/10 a soil incorporation just before settled planting; for Disease control value / Disease severity: 67 days after settled planting
Method: as §1, §2, §3
The test was carried out by the same method as in Example 3 except for preparing an area subjected to a rainfall treatment of 20 mm by means of a rainfall apparatus (a treatment at a rate of 10 mm/hour for 2 hours) the day before treatment, and an area not subjected to the rainfall treatment. Sixty-seven days after the settled planting, the number of each index of clubroot adhesion to the root was investigated. For comparison, the same test was carried out on a control section where a soil drench treatment with the chemical solution for spraying was not applied.
as §5, with “4” for “1(2)”, “before the” for “before”
as §4, with “4” for “3”

[4] = 800 ppm soil drench 250 ml/plant 4 days after settled planting
[5] = 800 ppm soil drench 250 ml/plant 7 days after settled planting
[6] = 800 ppm soil drench 250 ml/plant 14 days after settled planting
[7] = 800 ppm soil drench 250 ml/plant just after settled planting
[8] = 800 ppm soil drench after settled planting
[9] = with rainfall treatment, dust formulation soil incorporation just before settled planting

Structure (SMILES): N#Cc1c(Cl)c(Cl)c(Cl)c(C#N)c1Cl [chlorothalonil]
- Weight in the aerial part (Plasmodiophora brassicae [1]; [4]): 92 g
- Disease control value (Plasmodiophora brassicae [1]; [4]): 25
- Disease severity (Plasmodiophora brassicae [1]; [4]): 60
- Weight in the aerial part (Plasmodiophora brassicae [1]; [5]): 69 g
- Disease control value (Plasmodiophora brassicae [1]; [5]): 0
- Disease severity (Plasmodiophora brassicae [1]; [5]): 90
- Weight in the aerial part (Plasmodiophora brassicae [1]; [6]): 70 g
- Disease control value (Plasmodiophora brassicae [1]; [6]): 0
- Disease severity (Plasmodiophora brassicae [1]; [6]): 90
- Weight in the aerial part (Plasmodiophora brassicae [1]; [7]): 96 g
- Disease control value (Plasmodiophora brassicae [1]; [7]): 56
- Disease severity (Plasmodiophora brassicae [1]; [7]): 35
- Control effect (Plasmodiophora brassicae [1]; [8]): a control effect which is sufficient for practical use was not obtained
- Effect of the disease on weight in the aerial part (Plasmodiophora brassicae [1]; [8]): greatly affected by the disease

Structure (SMILES): O=[N+]([O-])c1ccc(NS(=O)(=O)c2ccc(Cl)c(C(F)(F)F)c2)c(Cl)c1 [flusulfamide]
- Weight in the aerial part (Plasmodiophora brassicae [2]): 173 g
- Disease control value (Plasmodiophora brassicae [2]; 60 days after settled planting): 100
- Disease severity (Plasmodiophora brassicae [2]; 60 days after settled planting): 0
- Weight in the aerial part (Plasmodiophora brassicae [3]; with rainfall treatment 20 mm): 104 g
- Disease control value (Plasmodiophora brassicae [3]; with rainfall treatment 20 mm): 50
- Disease severity (Plasmodiophora brassicae [3]; with rainfall treatment 20 mm): 35
- Control effect (Plasmodiophora brassicae [3]; [9]): a practical control effect was not obtained
- Effect of the disease on weight in the aerial part (Plasmodiophora brassicae [3]; [9]): greatly affected by the disease
- Weight in the aerial part (Plasmodiophora brassicae [3]; without rainfall treatment): 118 g
- Disease control value (Plasmodiophora brassicae [3]; without rainfall treatment): 100
- Disease severity (Plasmodiophora brassicae [3]; without rainfall treatment): 0
